According to US20240207202A1, “COMBINATION THERAPIES TARGETING MITOCHONDRIAL BIOGENESIS FOR CANCER THERAPY” (The Wistar Institute of Anatomy and Biology, priority 2015, published 2024):

Assays:
[1] = test system: 1205Lu melanoma xenograft; test: Tumor volume of 1205Lu melanoma xenografts; assay type: in vivo, mice; settings: 1205Lu xenografts; for % T/C (percentages of tumor volumes): Table 7, 17 days, alone or with PLX4720 200 mg/kg diet
WM4265-2 cells = test: Tumor volume of WM4265-2 xenografts; assay type: in vivo, mice; settings: WM4265-2 xenografts (immunotherapy-progressed patient PDX line); Gamitrinib 10 mg/kg
Description: Mice were xenografted with WM4265-2 cells until tumors were established and then treated with Gamitrinib (10 mg/kg).

autophagic flux = test: Autophagic flux in WM9 cells expressing mCherry-eGFP-LC3B; assay type: cell-based, human; settings: WM9, 72 h, Gamitrinib 1 μM or Spautin-1 10 μM combined with PLX4720 10 μM/PD0325901 1 μM
Description: WM9 cells stably expressing pLVO-Puro-mCherry-eGFP-LC3 were analyzed with a BD LSR II flow cytometer. Fluorescence of mCherry and eGFP was recorded to derive the ratio of mCherryheight over eGFP-height. This ratio indicates the autophagic flux.
Briefly, autophagic flux was assessed by FACS analysis of WM9 cells expressing the mCherry-eGFPLC3B construct that were transfected with the indicated siRNAs targeting autophagy and ER stress response and treated for 72 h with DMSO or the combination of PLX4720 at 10 μM and PD0325901 at 1 μM. The data represent the average of 2 biological replicates. Induction of apoptosis and cell death was assessed by PSVue 643 staining in WM9 cells expressing the mCherry-eGFP-LC3B construct transfected with the indicated siRNAs targeting autophagy and ER stress response and treated for 72 h with DMSO or the combination of PLX4720 at 10 μM and PD0325901 at 1 μM. Autophagic flux was assessed by FACS analysis of WM9 cells expressing the mCherry-eGFPLC3B construct treated for 72 h with Gamitrinib at 1 μM or Spautin-1 at 10 μM in combination with PLX4720 at 10 μM/PD0325901 at 1 μM. Cells treated with DMSO were used as the control for setting up the gate. Induction of apoptosis and cell death was assessed by PSVue 643 staining in WM9 cells treated for 72 h with Gamitrinib at 1 μM or Spautin-1 at 10 μM in combination with PLX4720 at 10 μM/PD0325901 at 1 μM. […]

M-MITF = M-MITF gene expression by qRT-PCR in WM9 cells; assay type: cell-based, human; settings: WM9, 48 h, Gamitrinib 1 μM added to PLX4720 10 μM and PD0325901 1 μM
Description: One μg total mRNA was reverse transcribed using a Maxima First Strand cDNA Synthesis Kit for qRT-PCR (Thermo Fisher). Fast SYBR® Green Master Mix (Life Technologies) was used with cDNA template and primers to evaluate the expression of target genes and GAPDH. Primers used were purchased from Integrated DNA Technologies. Amplifications were performed using an Applied Biosystems® 7500 Real-Time PCR System (Life Technologies). All experiments were performed in triplicate. Expression ratios of controls were normalized to 1. Please see Extended Experimental Procedures for the list of PCR primer sequences.

reactive oxygen species = test: ROS by CellROX Deep Red; assay type: cell-based, human; settings: WM9, 72 h, Gamitrinib 1 μM with PLX4720 10 μM and PD0325901 1 μM
Description: Adherent melanoma cells were harvested with 0.05% Trypsin-EDTA and were washed once with 1×DPBS. Cells were labeled with CellTrace™ Violet according to the manufacturer's protocol and were allowed to adhere to tissue culture plates overnight following the drug treatment. At indicated time points following the drug treatment, floating and adherent cells were pooled, washed with Hank's Buffered Salt Solution (HBSS) and then stained with CellROX Deep Red at 2.5 μM or MitoTracer Red at 0.25 μM for 1 h in a 37° C. humidified incubator supplied with 5% CO2. Cells were then pelleted, washed with DPBS, and stained with PSVue® 643 at 5 μM diluted in TES buffer for 5 min in the dark. Cells were then immediately subjected to FACS analysis using a BD LSR II flow cytometer and at least 5,000 cells per sample were acquired.
Labeling cells with CellROX Deep Red—Following drug treatment, floating and adherent cells were pooled and stained in FACS tubes with CellROX Deep Red at 2.5 μM. Fluorescent dyes were diluted in 10% DMEM/F12 culture medium. Stained cell suspensions were kept in a 37° C. tissue culture incubator for 60 min with brief vortexing every 30 min. Cells were then washed with 1×PBS supplemented with 10% FBS.

For Gamitrinib, which tumor growth ([1]; Gamitrinib 15 mg/kg alone) is on record?
Its tumor growth is “significantly impaired tumor growth”.

What about the “% T/C (percentages of tumor volumes)” value ([1]; gamitrinib 5 mg/kg QD i.p.) of the same substance?
The value was 124.59%.

What about the “% T/C (percentages of tumor volumes)” value ([1]; gamitrinib 15 mg/kg QD i.p.) of the same substance?
The value was 57.3%.

What about the tumor growth (WM4265-2 cells) of the same substance?
The tumor growth was “significantly inhibited tumor growth”.

And the autophagic flux (autophagic flux)?
The autophagic flux was “decreased the autophagic flux”.

What about the “M-MITF expression up-regulated by MAPK pathway inhibitors” value (M-MITF) of the same substance?
Its value is “further down-regulated”.

And the “ROS production compared to MAPK pathway inhibitors alone” value (reactive oxygen species)?
The value was “markedly increased the ROS production”.
